Laboratory results from patent US10973815B2, “Delta opioid agonist mu opioid antagonist compositions and methods for treating Parkinsons disease” (priority 2016, dated 2021).

Columns and labels:
[1] = test system: MPTP-lesioned cynomolgus macaques; experiment: Acute DPI-289 in combination with low-dose L-DOPA, versus high-dose L-DOPA, in MPTP-lesioned macaques with L-DOPA-induced dyskinesia; format: in vivo, Macaca fascicularis
Text: This study utilized female MPTP-lesioned cynomolgus macaques that have received chronic repeat-treatment with L-DOPA and manifested stable and reproducible dyskinesia, of choreic and dystonic nature, in response to subsequent L-DOPA-treatments. Eight cynomolgus monkeys (Macaca fascicularis, 7.6-13.1 years of age, 3.0-4.5 kg) were used in this study. In a prior experiment, for each individual animal a low and high dose of L-DOPA was established such that the low dose (LD1) provided modest anti-parkinsonian action (1-2 h) and elicited predominantly non-disabling dyskinesia, the high dose (LDh) provided the best anti-parkinsonian effect achievable but also elicited disabling dyskinesia and an anti-parkinsonian benefit of 2-3 h duration
The behavioral effects of acute DPI-289 administered in combination with low-dose L-DOPA (LD1) were assessed. Also higher dose of L-DOPA was also assessed without the addition of DPI-289. The low dose (LD1) was about 10 to 11 mg/kg of L-DOPA which is considered to be sub-optimal in terms of anti-parkinsonian benefit. The dose of DPI-289 was 20 mg/kg and the high dose of L-DOPA was about 30 to 31 mg/kg and considered to an optimal does in terms of anti-parkinsonian benefit but with disabling dyskinesia. The DPI-289 was administered one (1) hour prior to the L-DOPA and start of observation. Activity counts were collected and parkinsonian disability and dyskinesia was assessed via post-hoc analysis of video-recordings by a movement disorder neurologist blinded to treatment.
On the day before behavioral observations, food was removed overnight, from 5 p.m. On days of behavioral assessment, treatment was administered to the animals in their home cage at approximately 9 a.m. A 6 h period of observation then commenced 1 h after oral dosing.
The animals were rendered parkinsonian by once daily subcutaneous injection of 0.2 mg/kg MPTP, administered for 8-12 days, until the first appearance of parkinsonism symptoms. After this time, a parkinsonian syndrome reached a moderate to marked level, over approximately 30 days, and stabilized. Additional administrations of MPTP were given to some animals to titrate to similar degrees of parkinsonism in individuals across the group. […] Sixty days after commencing MPTP administration, L-DOPA (25 mg/kg) was administered orally twice daily for at least two months. L-DOPA was given with the decarboxylase inhibitor benserazide (as Madopar™). This treatment leads to the development of motor fluctuations, including dyskinesia.

6-OHDA-lesioned rats = experiment: Rotations in unilateral 6-OHDA-lesioned rats; format: in vivo, rat
Text: N=6 rats per group, Newman-Keuls post hoc test was used for statistical significance.
N=8 per group, Newman-Keuls post hoc test for statistical significance.
In a rat model of PD, focal injection of the neurotoxin 6-hydroxydopamine (6-OHDA) was used to create a unilateral lesion of the nigrostriatal dopamine pathway. When challenged with dopamine agonists, rats rotate in the direction contralateral to the lesion and the number of rotations may be used as a measure of anti-parkinsonian efficacy.

[2] = test system: unilateral 6-OHDA-lesioned Rats; experiment: Postural asymmetry and dyskinesia (AIMs) on repeated dosing in unilateral 6-OHDA-lesioned rats; format: in vivo, rat; settings: 3 mg/kg p.o. daily for 15 days
[3] = DPI-289 20 mg/kg in combination with low-dose L-DOPA

For `CCN(CC)C(=O)c1ccc(C(c2cccc(O)c2)N2C[C@@H](C)N(Cc3cccc(F)c3)C[C@@H]2C)cc1` (stereo partly drawn) [DPI-289, 4-((alpha-R)-alpha-((2S,5R)-2,5-Dimethyl-4-(3-fluorobenzyl)-1-piperazinyl)-3-hydroxybenzyl)-N,N-diethylbenzamide], the “Good ON-time” value [1, 3] was “comparable ‘good’ time as that of the high dose of L-DOPA”, the alertness [1, 3] was “improvement in alertness value that mirrored that of the high dose of L-DOPA” and the parkinsonian disability [1, 3] was “even and consistent level of fairly mild parkinsonian disability”. For the same compound, the postural instability [1, 3] was “reduced postural instability from about 2 to 6 hours after the dosing”, the “range of movement impairment” value [1, 3] was “reduced range of movement impairment than low dose L-DOPA alone but this difference did not reach statistical significance” and the motor activity ([1]; DPI-289 20 mg/kg in combination with low-dose L-DOPA (about 10 to 11 mg/kg), cf. high dose L-DOPA) was “extended activity into four and five hours”. For the same compound, the dyskinesia ([1]; DPI-289 20 mg/kg in combination with low-dose L-DOPA, cf. low-dose L-DOPA alone) was “no additional dyskinesia”, the “BAD ON-time (ON-time with disabling dyskinesia)” value ([1]; DPI-289 20 mg/kg in combination with low-dose L-DOPA, relative to high dose L-DOPA) was “considerably less of ‘bad’ time” and the bradykinesia ([1]; DPI-289 20 mg/kg in combination with low-dose L-DOPA, three to six hours after dosing) was “same level of bradykinesia as that of the high dose of L-DOPA”. The “duration of effect on parkinsonian disability” value ([1]; DPI-289 20 mg/kg in combination with sub-therapeutic L-DOPA) was “at least 6 hours”, the “contralateral and ipsilateral rotations” value (6-OHDA-lesioned rats; 30 mg/kg) was “also increased rotations but the effect on contralateral rotations appeared to be diminished” and the “contralateral and ipsilateral rotations” value (6-OHDA-lesioned rats; 1-10 mg/kg i.p.) was “dose-related increase in both contralateral and ipsilateral rotations”. The L-DOPA-induced contralateral rotations (6-OHDA-lesioned rats; co-administered with sub-optimal dose of L-DOPA (25 mg/kg i.p.)) was “marked potentiation of contralateral rotations”, the “dyskinesia (abnormal involuntary movements, AIMs)” value [2] was “did not elicit dyskinesia” and the postural asymmetry [2] was “reduced or reversed the postural asymmetry”.
